From patent publication US6358885B1, “Substituted phenylheterocyclic herbicides” (Mississippi State University, priority 1992, dated 2002)

Experiments:
barnyardgrass = assay: Test B preemergence/postemergence greenhouse plant response rating 0 to 10; format: in vivo, Echinochloa crus-galli; conditions: for Plant response rating, Barnyardgrass: 0 to 10 scale
How it was run: (§1)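 Both application timings were run together: seeds got compound preemergence, and established seedlings (two to eighteen cm) got it postemergence. Non-phytotoxic solvent carried the chemical. Ratings are visual, versus controls, at twelve to sixteen days.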

giant foxtail = assay: as above; format: in vivo, Setaria faberii; conditions: 0 to 10 scale
How it was run: as §1

lambsquarters = assay: as above; format: in vivo, Chenopodium album; conditions: 0 to 10 scale
How it was run: as §1

sugar beet = assay: as above; format: in vivo, Beta vulgaris; conditions: 0 to 10 scale
How it was run: as §1

velvetleaf [1] = assay: as above; format: in vivo, Abutilon theophrasti; conditions: 0 to 10 scale
How it was run: as §1

cotton = assay: Test C preemergence/postemergence greenhouse plant response rating 0 to 100; format: in vivo, Gossypium hirsutum; conditions: POSTEMERGENCE; for Plant response rating, Cotton: 0 to 100 scale
How it was run: (§2)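 Compounds in non-phytotoxic solvent went onto sandy loam before emergence (seeded one day earlier) or onto plants at the one-to-four leaf stage. Duck salad was treated via flood water (~2.5 cm, maintained) over silt loam.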

crabgrass = assay: as above; format: in vivo, Digitaria sanguinalis; conditions: POSTEMERGENCE; for Plant response rating, Crabgrass: 0 to 100 scale
How it was run: as §2

pigweed = assay: as above; format: in vivo, Amaranthusretroflexus; conditions: POSTEMERGENCE; for Plant response rating Pigweed: 0 to 100 scale
How it was run: as §2

sorghum = assay: as above; format: in vivo, Sorghum bicolor; conditions: POSTEMERGENCE; for Plant response rating, Sorghum: 0 to 100 scale
How it was run: as §2

velvetleaf [2] = assay: as above; format: in vivo, Abutilon theophrasti; conditions: POSTEMERGENCE; for Plant response rating, Velvetleaf: 0 to 100 scale
How it was run: as §2

wild oat = assay: as above; format: in vivo, Avena fatua; conditions: POSTEMERGENCE; for Plant response rating, Wild oat: 0 to 100 scale
How it was run: as §2

rice = assay: Test C flood test plant response rating 0 to 100; format: in vivo, Oryza sativa; conditions: for Plant response rating Rice Japonica: flood test species listed under POSTEMERGENCE, 0 to 100 scale
How it was run: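 Compounds in non-phytotoxic solvent applied preemergence to sandy loam one day after planting, postemergence at the 1–4 leaf stage, or to ~2.5 cm floodwater over silt loam.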

alfalfa = assay: Test G preemergence/postemergence greenhouse plant response rating 0 to 100; format: in vivo, Medicago ativa; conditions: 0 to 100 scale
How it was run: (§3)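 Scoring: visual injury at 13 to 21 days post-application, compared with untreated controls. Planting: one species per pot in greenhouse medium. Dosing: compound in non-phytotoxic solvent, within one day of sowing for preemergence or at 2–4 leaves for postemergence.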

purple nutsedge = assay: as above; format: in vivo, Cyperus rotundus; conditions: Rate 125 g/ha, 0 to 100 scale
How it was run: as §3

## CC(C)COc1cc(-c2nn3c(c2Cl)CCCC3)c(F)cc1Cl [Compound 30]
barnyardgrass; POSTEMERGENCE, Rate 50 g/ha
  Plant response rating (0 to 10 scale), Barnyardgrass: 6
barnyardgrass; POSTEMERGENCE, Rate 200 g/ha
  Plant response rating, Barnyardgrass: 10
barnyardgrass; PREEMERGENCE, Rate 50 g/ha
  Plant response rating, Barnyardgrass: 2
barnyardgrass; Rate 200 g/ha, PREEMERGENCE
  Plant response rating, Barnyardgrass: 6
Giant foxtail; POSTEMERGENCE, Rate 50 g/ha
  Plant response rating, Giant foxtail: 4
Giant foxtail; PREEMERGENCE, Rate 50 g/ha
  Plant response rating, Giant foxtail: 7
Giant foxtail; Rate 200 g/ha, POSTEMERGENCE
  Plant response rating, Giant foxtail: 5
Giant foxtail; Rate 200 g/ha, PREEMERGENCE
  Plant response rating, Giant foxtail: 8
lambsquarters; POSTEMERGENCE, Rate 50 g/ha
  Plant response rating, Lambsquarter: 10
lambsquarters; PREEMERGENCE, Rate 50 g/ha
  Plant response rating, Lambsquarter: 8
lambsquarters; Rate 200 g/ha, POSTEMERGENCE
  Plant response rating, Lambsquarter: 10
lambsquarters; Rate 200 g/ha, PREEMERGENCE
  Plant response rating, Lambsquarter: 10
Sugar beet; POSTEMERGENCE, Rate 50 g/ha
  Plant response rating, Sugar beet: 10
Sugar beet; PREEMERGENCE, Rate 50 g/ha
  Plant response rating, Sugar beet: 5
Sugar beet; Rate 200 g/ha, POSTEMERGENCE
  Plant response rating, Sugar beet: 10
Sugar beet; Rate 200 g/ha, PREEMERGENCE
  Plant response rating, Sugar beet: 9
Velvetleaf [1]; POSTEMERGENCE, Rate 50 g/ha
  Plant response rating, Velvetleaf: 7
Velvetleaf [1]; PREEMERGENCE, Rate 50 g/ha
  Plant response rating, Velvetleaf: 5
Velvetleaf [1]; Rate 200 g/ha, POSTEMERGENCE
  Plant response rating, Velvetleaf: 10
Velvetleaf [1]; Rate 200 g/ha, PREEMERGENCE
  Plant response rating, Velvetleaf: 10
cotton; 62 g/ha
  Plant response rating, Cotton: 100
cotton; 250 g/ha
  Plant response rating, Cotton: 100
cotton; Rate 4 g/ha
  Plant response rating (0 to 100), Cotton: 100
cotton; Rate 16 g/ha
  Plant response rating (0 to 100), Cotton: 100
crabgrass; 62 g/ha
  Plant response rating, Crabgrass: 0
crabgrass; 250 g/ha
  Plant response rating, Crabgrass: 20
crabgrass; Rate 4 g/ha
  Plant response rating (0 to 100), Crabgrass: 0
crabgrass; Rate 16 g/ha
  Plant response rating (0 to 100), Crabgrass: 0
pigweed; 62 g/ha
  Plant response rating Pigweed: 100
pigweed; 250 g/ha
  Plant response rating Pigweed: 100
pigweed; Rate 4 g/ha
  Plant response rating (0 to 100), Pigweed: 100
pigweed; Rate 16 g/ha
  Plant response rating (0 to 100), Pigweed: 100
sorghum; 62 g/ha
  Plant response rating, Sorghum: 20
sorghum; 250 g/ha
  Plant response rating, Sorghum: 40
sorghum; Rate 4 g/ha
  Plant response rating (0 to 100), Sorghum: 0
sorghum; Rate 16 g/ha
  Plant response rating (0 to 100), Sorghum: 0
Velvetleaf [2]; 62 g/ha
  Plant response rating, Velvetleaf: 100
Velvetleaf [2]; 250 g/ha
  Plant response rating, Velvetleaf: 100
Velvetleaf [2]; Rate 4 g/ha
  Plant response rating (0 to 100), Velvetleaf: 0
Velvetleaf [2]; Rate 16 g/ha
  Plant response rating (0 to 100), Velvetleaf: 60
Wild oat; 62 g/ha
  Plant response rating, Wild oat: 60
Wild oat; 250 g/ha
  Plant response rating, Wild oat: 80
Wild oat; Rate 4 g/ha
  Plant response rating (0 to 100), Wild oat: 20
Wild oat; Rate 16 g/ha
  Plant response rating (0 to 100), Wild oat: 40
rice; POSTEMERGENCE section, flood test, Rate 4 g/ha
  Plant response rating (0 to 100), Rice Japonica: 35
rice; Rate 16 g/ha, under POSTEMERGENCE head (flood test species)
  Plant response rating (0 to 100), Rice Japonica: 40
rice; 62 g/ha
  Plant response rating Rice Japonica: 50
rice; 250 g/ha
  Plant response rating Rice Japonica: 60
alfalfa; POSTEMERGENCE, Rate 125 g/ha
  Plant response rating, Alfalfa Var.: 0
alfalfa; POSTEMERGENCE, Rate 250 g/ha
  Plant response rating, Alfalfa Var.: 0
alfalfa; PREEMERGENCE, Rate 125 g/ha
  Plant response rating, Alfalfa Var.: 0
alfalfa; PREEMERGENCE, Rate 250 g/ha
  Plant response rating, Alfalfa Var.: 0
Purple nutsedge; POSTEMERGENCE
  Plant response rating, Purple Nutsedge: 0
Purple nutsedge; PREEMERGENCE
  Plant response rating, Purple Nutsedge: 0
